In patent EP0129409B1, “Thiazolo - and thiazinobenzimidazoles” (JOHN WYETH & BROTHER LIMITED, priority 1983, dated 1984):
Like-named read-outs stand apart in the source and are kept apart here.

Experiments:
[1] = antisecretory activity, test of Shay, Sun and Gruenstein; conditions: in vivo
[2] = target: T1, H⁺/K⁺ ATPase (Oryctolagus cuniculus, UniProt P27112); assay: inhibition of 14C-aminopyrine uptake in rabbit isolated gastric glands stimulated by DBcAMP or high K+; assay type: cell-based; conditions: % inhibition of the maximum response to the secretagogue; for inhibition at 10 µM: at 10⁻⁵M
T1 construct: Rabbit gastric glands are isolated from gastric mucosa from the corpus region of the stomach; from tissue; host or cells: rabbit isolated gastric glands (gastric mucosa, corpus region of the stomach)
Description: Compounds of formula I were also tested for anti-secretory activity by their ability to inhibit the highly specific proton transporting enzyme H⁺/K⁺ ATPase.
Potential H⁺/K⁺ ATPase inhibitors were evaluated by a technique involving the measurement of aminopyrine accumulation in rabbit isolated gastric glands. Aminopyrine accumulates in acid-secreting cells; therefore, uptake of aminopyrine is increased by secretagogues and an inhibitor of acid secretion will reduce the response to one or more secretagogues depending upon its site of action. […] The following test procedure is used: Rabbit gastric glands are isolated from gastric mucosa from the corpus region of the stomach by a method based on one described by Berglindh T., Obrink K.J., Acta Physiol. Scand.
Results are expressed as the % inhibition of the maximum response to the secretagogue induced by the test compound. An inhibitor of H⁺/K⁺ ATPase would be expected to reduce the response to both secretagogues.

[3] = system: stress-induced erosion; assay: stress-induced erosion test of Senay and Levine (anti-ulcer activity); assay type: in vivo; conditions: decrease in ulcer formation as percentage of control score, rats, oral
Description: Anti-ulcer activity was determined by the stress-induced erosion test of Senay and Levine, Proc. Soc. Exp. Biol. Med., 124, 1221-3 (1967). The procedure used was as follows.
Male rats, weighing between 80 and 120 gms. were fasted overnight with water ad lib. The rats were then divided into groups of six and dosed orally with the test drug in the form of a solution or with the vehicle alone, 0.5% carboxymethylcellulose, in a volume of 10ml/kg.
After 30 minutes the rats were inserted into aluminium restraining tubes measuring 1⁵/₈ inches in diameter by 5 inches and placed in the cold (4±1°C) for 3 hours. Immediately after cold exposure the rats were killed with intracranial alcohol and their stomachs excised and opened along the greater curvature. Each stomach was washed gently free of contents with warm tap water and pinned out on a board. The condition of the gastric mucosa was then scored from 0 to 6 on the following scale:
The maximum possible score for each animal was 6 and for the group 36. Decrease in ulcer formation was calculated as a percentage of the control score, i.e. [formula] The statistical significance of the effect is assessed by Student's t-test.

[4] = at 10⁻⁴M, read-out: % Inhibition to stimulation by: DBcAMP
[5] = at 10⁻⁴M, read-out: % Inhibition to stimulation by: K⁺

T1 sequence (P27112 whole entry): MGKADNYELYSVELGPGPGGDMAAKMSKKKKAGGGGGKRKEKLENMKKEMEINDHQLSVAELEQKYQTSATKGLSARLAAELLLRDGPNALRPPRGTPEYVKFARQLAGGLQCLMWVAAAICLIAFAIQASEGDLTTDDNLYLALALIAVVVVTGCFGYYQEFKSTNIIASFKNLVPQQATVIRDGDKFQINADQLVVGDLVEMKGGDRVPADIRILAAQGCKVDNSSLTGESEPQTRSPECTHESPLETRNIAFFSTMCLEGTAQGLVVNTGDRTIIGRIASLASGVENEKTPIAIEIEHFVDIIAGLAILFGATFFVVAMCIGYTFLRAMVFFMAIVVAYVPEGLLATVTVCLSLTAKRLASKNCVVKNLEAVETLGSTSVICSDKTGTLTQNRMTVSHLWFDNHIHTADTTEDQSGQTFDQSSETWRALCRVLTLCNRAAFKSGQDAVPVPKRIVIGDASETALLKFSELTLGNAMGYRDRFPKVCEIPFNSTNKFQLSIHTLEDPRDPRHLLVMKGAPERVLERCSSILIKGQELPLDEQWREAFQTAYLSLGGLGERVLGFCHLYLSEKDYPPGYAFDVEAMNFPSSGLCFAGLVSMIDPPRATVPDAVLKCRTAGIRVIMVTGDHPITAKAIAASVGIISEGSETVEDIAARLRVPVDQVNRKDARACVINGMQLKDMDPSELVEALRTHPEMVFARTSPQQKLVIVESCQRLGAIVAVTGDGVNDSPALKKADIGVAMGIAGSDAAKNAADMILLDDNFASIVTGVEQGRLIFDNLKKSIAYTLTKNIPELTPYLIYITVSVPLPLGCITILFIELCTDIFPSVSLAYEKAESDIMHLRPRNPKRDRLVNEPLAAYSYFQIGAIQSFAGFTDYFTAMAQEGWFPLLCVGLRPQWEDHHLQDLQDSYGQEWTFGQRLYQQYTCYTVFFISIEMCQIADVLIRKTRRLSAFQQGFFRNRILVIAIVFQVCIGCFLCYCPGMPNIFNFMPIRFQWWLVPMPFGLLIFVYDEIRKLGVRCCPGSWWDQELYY
T1 sequence (P18597 whole entry partner): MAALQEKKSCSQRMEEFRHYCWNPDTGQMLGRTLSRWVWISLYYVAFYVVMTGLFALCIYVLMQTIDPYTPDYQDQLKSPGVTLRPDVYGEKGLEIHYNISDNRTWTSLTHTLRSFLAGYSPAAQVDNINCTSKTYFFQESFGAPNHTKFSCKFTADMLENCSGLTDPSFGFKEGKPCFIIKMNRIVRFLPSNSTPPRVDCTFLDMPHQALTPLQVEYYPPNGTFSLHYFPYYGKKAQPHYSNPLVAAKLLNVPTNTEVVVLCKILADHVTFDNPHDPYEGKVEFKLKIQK

Row | inhibition at 100 µM [2, 4] | inhibition at 100 µM [2, 5] | Molecule | Antisecretory activity [1] | further results
1 |  |  | 2,3-Dihydro-6-methyl-2-(2-pyridyl)thiazolo[3,2-a]-benzimidazole and 2,3-Dihydro-7-methyl-2-(2-pyridyl)-thiazolo [3,2-a]benzimidazole [Example 7] | particularly active | 
2 |  |  | 2,3-Dihydro-6-methyl-2-(2-pyridyl)thiazolo[3,2-a]-benzimidazole-1-oxide and 2,3-Dihydro-7-methyl-2-(2-pyridyl)thiazolo[3,2-a]benzimidazole-1-oxide [Example 10] | particularly active | 
3 |  |  | 6-Chloro-2,3-dihydro-2-(2-pyridyl)thiazolo[3,2-a]-benzimidazole-1-oxide and 7-chloro-2,3-dihydro-2-(2-pyridyl)-thiazolo[3,2-a]benzimidazole-1-oxide [Example 18] | particularly active | 
4 |  |  | 6-Ethoxy-2-(2-pyridyl)thiazolo[3,2-a]-benzimidazole and 7-ethoxy-2-(2-pyridyl)thiazolo[3,2-a]benzimidazole [Example 24] |  | % Inhibition to stimulation by: DBcAMP ([2]; at 10⁻⁴M, 100 µM): 68% at 10⁻⁴M; % Inhibition to stimulation by: K⁺ ([2]; at 10⁻⁴M, 100 µM): 162% at 10⁻⁴M
5 |  |  | c1ccc(C2Cn3c(nc4ccccc43)S2)nc1 (centres unmarked) [Example 1, 2,3-Dihydro-2-(2-pyridyl)thiazolo[3,2-a]benzimidazole] | particularly active | Inhibition ([3]; Dose 30 mg/kg): 86%; Inhibition ([3]; Dose 100 mg/kg): 75%
6 | 74% | 91% | [O-][S+]1c2nc3ccccc3n2CC1c1ccccn1 (centres unmarked) [Example 2, 2,3-Dihydro-2-(2-pyridyl)thiazolo[3,2-a]benzimidazole-1-oxide] | particularly active | inhibition at 10 µM ([2]; read-out: % Inhibition to stimulation by: DBcAMP): 73%; inhibition at 10 µM ([2]; read-out: % Inhibition to stimulation by: K⁺): 26%
7 |  |  | c1ccc(C2Cn3c(nc4ccccc43)S2)cc1 (centres unmarked) [Example 3, 2,3-Dihydro-2-phenylthiazolo[3,2-a]benzimidazole] |  | Inhibition ([3]; Dose 100 mg/kg): 74%
8 | 90% | 187% | Cc1ccc(C2Cn3c(nc4cc(Cl)c(Cl)cc43)S2)cn1 (centres unmarked) [Example 6, 6,7-Dichloro-2,3-dihydro-2-(6-methylpyrid-3-yl)thiazolo-[3,2-a]benzimidazole] |  | 
9 | 50.5% |  | Clc1cc2nc3n(c2cc1Cl)CC(c1ccccn1)S3 (centres unmarked) [Example 8, 6,7-Dichloro-2,3-dihydro-2-(2-pyridyl)thiazolo[3,2-a]-benzimidazole] |  | 
10 |  |  | Cc1cc2nc3n(c2cc1C)CC(c1ccccn1)S3 (centres unmarked) [Example 9, 2,3-Dihydro-6,7-dimethyl-2-(2-pyridyl)thiazolo[3,2-a]-benzimidazole] | particularly active | Inhibition ([3]; Dose 100 mg/kg): 82%
11 | 30% | 209% | Cc1cc2nc3n(c2cc1C)CC(c1ccccn1)[S+]3[O-] (centres unmarked) [Example 13, 2,3-Dihydro-6,7-dimethyl-2-(2-pyridyl)thiazolo[3,2-a]-benzimidazole-1-oxide] | particularly active | 
12 | 56% | 142% | CCc1ccc(-c2cn3c(nc4ccccc43)s2)nc1 [Example 27, 2-(2-(5-Ethylpyridyl))thiazolo[3,2-a]benzimidazole] |  | 
13 | 22% | 381% | c1ccc(-c2cccc(-c3cn4c(nc5ccccc54)s3)n2)cc1 [Example 37, 2-[2-(6-Phenylpyridyl)]thiazolo[3,2-a]benzimidazole] |  | 
